Measurements as given in PubChem BioAssay AID2060605 (Molecular Pharmacology Branch, DTP, NCI, 2025).

Tested on: 947758-054-R-J2-PDC spheroid growth, percent test/control
Test: Anticancer human tumor 947758-054-R-J2-PDC patient-derived colon adenocarcinoma cell line growth inhibition [CLK]
Conditions: spheroids with HUVEC and MSC; for IC50: curve of first compound; for viability, T/C: stronger effect = lower value
Outline: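 Multi-cell-type spheroids combined patient-derived tumor cells with HUVEC endothelial cells and human mesenchymal stem cells. Paired agents were dosed in half-log steps down from about clinical Cmax, or from 10 microM where Cmax was unknown.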

[1] = second compound 0.0316 µM, first compound 0.0316 µM
[2] = second compound 0.0316 µM, first compound 0.1 µM
[3] = second compound 0.0316 µM, first compound 0.316 µM
[4] = second compound 0.0316 µM, first compound 1 µM
[5] = second compound 0.0316 µM, first compound 3.16 µM
[6] = second compound 0.0316 µM, first compound 10 µM
[7] = second compound 0.1 µM, first compound 0.0316 µM
[8] = second compound 0.1 µM, first compound 0.1 µM
[9] = second compound 0.1 µM, first compound 0.316 µM
[10] = second compound 0.1 µM, first compound 1 µM
[11] = second compound 0.1 µM, first compound 3.16 µM
[12] = second compound 0.1 µM, first compound 10 µM
[13] = second compound 0.316 µM, first compound 0.0316 µM
[14] = second compound 0.316 µM, first compound 0.1 µM
[15] = second compound 0.316 µM, first compound 0.316 µM
[16] = second compound 0.316 µM, first compound 1 µM
[17] = second compound 0.316 µM, first compound 3.16 µM
[18] = second compound 0.316 µM, first compound 10 µM
[19] = second compound 1 µM, first compound 0.0316 µM
[20] = second compound 1 µM, first compound 0.1 µM
[21] = second compound 1 µM, first compound 0.316 µM
[22] = second compound 1 µM, first compound 1 µM
[23] = second compound 1 µM, first compound 3.16 µM
[24] = second compound 1 µM, first compound 10 µM
[25] = second compound 3.16 µM, first compound 0.0316 µM
[26] = second compound 3.16 µM, first compound 0.1 µM
[27] = second compound 3.16 µM, first compound 0.316 µM
[28] = second compound 3.16 µM, first compound 1 µM
[29] = second compound 3.16 µM, first compound 3.16 µM
[30] = second compound 3.16 µM, first compound 10 µM
[31] = second compound 10 µM, first compound 0.0316 µM
[32] = second compound 10 µM, first compound 0.1 µM
[33] = second compound 10 µM, first compound 0.316 µM
[34] = second compound 10 µM, first compound 1 µM
[35] = second compound 10 µM, first compound 3.16 µM
[36] = second compound 10 µM, first compound 10 µM
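Note: spheroids exposed to compounds for one week before readout.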
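Throughout, for viability, T/C: 100% = DMSO vehicle control wells.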

C=C(F)C(=O)N1CCN(c2nc(OCC3CCCN3C)nc3c2CCN(c2cccc4cccc(Cl)c24)C3)CC1CC#N (stereo not drawn) + CNC(=O)c1ccc(Nc2nc(OC3CCCC3)c3c(-c4ccc5nc(C)oc5c4)c[nH]c3n2)c(OC)c1
IC50 (second compound 0.0316 µM): 6100 nM | IC50 (second compound 0.1 µM): 4950 nM | IC50 (second compound 0.316 µM): 3830 nM | IC50 (second compound 1 µM): < 31.6 nM | IC50 (second compound 3.16 µM): < 31.6 nM | IC50 (second compound 10 µM): < 31.6 nM | viability, T/C [1]: 88.6% | viability, T/C [2]: 66.7% | viability, T/C [3]: 83.4% | viability, T/C [4]: 99.7% | viability, T/C [5]: 132% | viability, T/C [6]: 16.8% | viability, T/C [7]: 96.9% | viability, T/C [8]: 71.1% | viability, T/C [9]: 79.6% | viability, T/C [10]: 98% | viability, T/C [11]: 76.9% | viability, T/C [12]: 7.83% | viability, T/C [13]: 76.9% | viability, T/C [14]: 65.9% | viability, T/C [15]: 57.6% | viability, T/C [16]: 77.2% | viability, T/C [17]: 59.2% | viability, T/C [18]: 3.73% | viability, T/C [19]: 38.5% | viability, T/C [20]: 34.6% | viability, T/C [21]: 35.7% | viability, T/C [22]: 54.8% | viability, T/C [23]: 47.5% | viability, T/C [24]: 0.18% | viability, T/C [25]: 41.5% | viability, T/C [26]: 34.3% | viability, T/C [27]: 31.2% | viability, T/C [28]: 47.8% | viability, T/C [29]: 32.4% | viability, T/C [30]: 0.49% | viability, T/C [31]: 29.4% | viability, T/C [32]: 33.3% | viability, T/C [33]: 30% | viability, T/C [34]: 30.2% | viability, T/C [35]: 21.6% | viability, T/C [36]: 0.36%

CC(CO)NC(=O)c1cc(-c2ccc(Cl)cc2)nn(-c2cnn(C)c2)c1=O (stereo not drawn) + CN1CCN(c2cc(C(=O)Nc3cc4cc(-c5cnn(C)c5)ccc4cn3)ccn2)CC1
IC50 (second compound 0.0316 µM): > 10000 nM | IC50 (second compound 0.1 µM): > 10000 nM | IC50 (second compound 0.316 µM): < 31.6 nM | IC50 (second compound 1 µM): < 31.6 nM | IC50 (second compound 3.16 µM): < 31.6 nM | IC50 (second compound 10 µM): < 31.6 nM | viability, T/C [1]: 91.8% | viability, T/C [2]: 112% | viability, T/C [3]: 105% | viability, T/C [4]: 110% | viability, T/C [5]: 126% | viability, T/C [6]: 155% | viability, T/C [7]: 184% | viability, T/C [8]: 179% | viability, T/C [9]: 175% | viability, T/C [10]: 199% | viability, T/C [11]: 182% | viability, T/C [12]: 133% | viability, T/C [13]: 5.49% | viability, T/C [14]: 6.26% | viability, T/C [15]: 5.8% | viability, T/C [16]: 5.69% | viability, T/C [17]: 4.92% | viability, T/C [18]: 2.57% | viability, T/C [19]: 0.15% | viability, T/C [20]: 0.19% | viability, T/C [21]: 0.18% | viability, T/C [22]: 0.36% | viability, T/C [23]: 0.15% | viability, T/C [24]: 0.14% | viability, T/C [25]: 0.28% | viability, T/C [26]: 0.97% | viability, T/C [27]: 0.25% | viability, T/C [28]: 0.24% | viability, T/C [29]: 0.25% | viability, T/C [30]: 0.31% | viability, T/C [31]: 0.4% | viability, T/C [32]: 0.42% | viability, T/C [33]: 0.35% | viability, T/C [34]: 0.41% | viability, T/C [35]: 0.42% | viability, T/C [36]: 0.36%

CCCS(=O)(=O)Nc1ccc(F)c(C(=O)c2c[nH]c3ncc(-c4ccc(Cl)cc4)cc23)c1F + CN1CCN(c2cc(C(=O)Nc3cc4cc(-c5cnn(C)c5)ccc4cn3)ccn2)CC1
IC50 (second compound 0.0316 µM): > 10000 nM | IC50 (second compound 0.1 µM): 910 nM | IC50 (second compound 0.316 µM): < 31.6 nM | IC50 (second compound 1 µM): < 31.6 nM | IC50 (second compound 3.16 µM): < 31.6 nM | IC50 (second compound 10 µM): < 31.6 nM | viability, T/C [1]: 99.5% | viability, T/C [2]: 99.4% | viability, T/C [3]: 79.7% | viability, T/C [4]: 74.3% | viability, T/C [5]: 79.6% | viability, T/C [6]: 63.8% | viability, T/C [7]: 128% | viability, T/C [8]: 176% | viability, T/C [9]: 101% | viability, T/C [10]: 50.9% | viability, T/C [11]: 50.8% | viability, T/C [12]: 34.5% | viability, T/C [13]: 3.8% | viability, T/C [14]: 4.14% | viability, T/C [15]: 4.9% | viability, T/C [16]: 4.06% | viability, T/C [17]: 4.73% | viability, T/C [18]: 3.59% | viability, T/C [19]: 0.85% | viability, T/C [20]: 1% | viability, T/C [21]: 0.17% | viability, T/C [22]: 0.15% | viability, T/C [23]: 1.2% | viability, T/C [24]: 0.11% | viability, T/C [25]: 0.94% | viability, T/C [26]: 1.18% | viability, T/C [27]: 1.32% | viability, T/C [28]: 0.16% | viability, T/C [29]: 0.84% | viability, T/C [30]: 1.58% | viability, T/C [31]: 1.3% | viability, T/C [32]: 1.75% | viability, T/C [33]: 0.41% | viability, T/C [34]: 0.42% | viability, T/C [35]: 1.25% | viability, T/C [36]: 0.41%

CC1COCCN1c1cc(C2(S(C)(=N)=O)CC2)nc(-c2ccnc3[nH]ccc23)n1 (stereo not drawn) + CNC(=O)c1ccc(Nc2nc(OC3CCCC3)c3c(-c4ccc5nc(C)oc5c4)c[nH]c3n2)c(OC)c1
IC50 (second compound 0.0316 µM): 3050 nM | IC50 (second compound 0.1 µM): 2220 nM | IC50 (second compound 0.316 µM): 1820 nM | IC50 (second compound 1 µM): 308 nM | IC50 (second compound 3.16 µM): 196 nM | IC50 (second compound 10 µM): < 31.6 nM | viability, T/C [1]: 95.8% | viability, T/C [2]: 103% | viability, T/C [3]: 114% | viability, T/C [4]: 87% | viability, T/C [5]: 49.7% | viability, T/C [6]: 22.2% | viability, T/C [7]: 110% | viability, T/C [8]: 105% | viability, T/C [9]: 91.6% | viability, T/C [10]: 88.8% | viability, T/C [11]: 32.8% | viability, T/C [12]: 18.8% | viability, T/C [13]: 90.5% | viability, T/C [14]: 93% | viability, T/C [15]: 71.8% | viability, T/C [16]: 68% | viability, T/C [17]: 36% | viability, T/C [18]: 13.2% | viability, T/C [19]: 72.4% | viability, T/C [20]: 53.3% | viability, T/C [21]: 48.5% | viability, T/C [22]: 45.8% | viability, T/C [23]: 22% | viability, T/C [24]: 8.76% | viability, T/C [25]: 66.8% | viability, T/C [26]: 43.6% | viability, T/C [27]: 47.2% | viability, T/C [28]: 45.7% | viability, T/C [29]: 19.3% | viability, T/C [30]: 8.82% | viability, T/C [31]: 50.7% | viability, T/C [32]: 44.7% | viability, T/C [33]: 40.5% | viability, T/C [34]: 26.7% | viability, T/C [35]: 15.1% | viability, T/C [36]: 9.5%
